Target: T1, IRAK4 (Homo sapiens, UniProt Q9NWZ3)
T1 construct: C-terminal HiBiT-tagged Jurkat cells (polyclonal cell line or clone 8D5); endogenous in cells; host or cells: Jurkat cells (polyclonal cell line or clone 8D5), HiBiT-tagged
T1 sequence (Q9NWZ3 1-460): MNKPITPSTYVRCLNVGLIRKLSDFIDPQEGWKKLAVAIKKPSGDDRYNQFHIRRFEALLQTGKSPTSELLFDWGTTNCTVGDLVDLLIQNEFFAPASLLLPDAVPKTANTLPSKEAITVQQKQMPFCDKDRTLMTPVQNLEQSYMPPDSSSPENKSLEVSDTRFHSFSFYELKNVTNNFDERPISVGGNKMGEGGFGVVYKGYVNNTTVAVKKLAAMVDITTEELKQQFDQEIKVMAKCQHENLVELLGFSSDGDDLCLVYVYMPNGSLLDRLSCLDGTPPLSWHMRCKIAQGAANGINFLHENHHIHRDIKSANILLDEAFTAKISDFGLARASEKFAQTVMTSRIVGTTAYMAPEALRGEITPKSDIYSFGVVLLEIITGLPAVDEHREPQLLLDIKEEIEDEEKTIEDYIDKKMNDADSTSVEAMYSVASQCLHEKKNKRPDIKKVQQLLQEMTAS
Assay: IRAK4 Degradation HiBit Assay
Type: cell-based
Conditions: C-terminal HiBiT-tagged Jurkat cells, 4 hrs incubation; for DC50: % IRAK4 remaining, four-parameter fit (IC50 used as DC50); for Dmax: from fit of % IRAK4 remaining, read-out: Dmax
How it was run: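 Jurkat cells carrying C-terminal HiBiT-tagged IRAK4 (polyclonal or clone 8D5) exposed to compound, 10 μM–0.1 nM final over 11 points, for 4 h at 32 °C. Remaining IRAK4 measured by lytic HiBiT/LgBiT luminescence relative to DMSO. DC50 and Dmax taken from four-parameter variable-slope fits.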

| DC50 [nM] | Dmax [%] | Structure (SMILES) |
| --- | --- | --- |
| 29 | 110 | N#Cc1cnn2c(-c3cc(NC4CCOCC4)c(-c4nnc(N5CCN(CC6CCN(c7ccc(N8CCC(=O)NC8=O)c(F)c7)CC6)CC5)s4)cn3)ccc2c1 [Example 8, 7-(5-{5-[4-({1-[4-(2,4-dioxo-1,3-diazinan-1-yl)-3-fluorophenyl]piperidin-4-yl}methyl)piperazin-1-yl]-1,3,4-thiadiazol-2-yl}-4-[(oxan-4-yl)amino]pyridin-2-yl)pyrrolo[1,2-b]pyridazine-3-carbonitrile] |
| 6 | 110 | CCNc1cc(-c2ccc3cc(C#N)cnn23)ncc1-c1nnc(N2CCN(CC3CCN(c4ccc(N5CCC(=O)NC5=O)cn4)CC3)CC2)s1 [Example 71, 7-(5-{5-[4-({1-[5-(2,4-dioxo-1,3-diazinan-1-yl)pyridin-2-yl]piperidin-4-yl}methyl)piperazin-1-yl]-1,3,4-thiadiazol-2-yl}-4-(ethylamino)pyridin-2-yl)pyrrolo[1,2-b]pyridazine-3-carbonitrile] |
| 8 | 114 | CN(CC1CCN(c2ccc([C@@H]3CCC(=O)NC3=O)cn2)CC1)[C@H]1CC[C@H](c2nnc(-c3cnc(-c4ccc5cc(C#N)cnn45)cc3NC3CCOCC3)s2)CC1 (racemic) [Example 82, 7-{4-[(oxan-4-yl)amino]-5-{5-[(1r,4r)-4-{[(1-{5-[(3RS)-2,6-dioxopiperidin-3-yl]pyridin-2-yl}piperidin-4-yl)methyl](methyl)amino}cyclohexyl]-1,3,4-thiadiazol-2-yl}pyridin-2-yl}pyrrolo[1,2-b]pyridazine-3-carbonitrile] |
| 21 | 79 | CNc1cc(-c2ccc3cc(C#N)cnn23)ncc1-c1nnc([C@H]2CC[C@H](C(=O)N3CCc4cc([C@H]5CCC(=O)NC5=O)ccc4C3)CC2)s1 (racemic) [Example 5, 7-[4-(methylamino)-5-{5-[(1r,4r)-4-{6-[(3RS)-2,6-dioxopiperidin-3-yl]-1,2,3,4-tetrahydroisoquinoline-2-carbonyl}cyclohexyl]-1,3,4-thiadiazol-2-yl}pyridin-2-yl]pyrrolo[1,2-b]pyridazine-3-carbonitrile] |
| 36 | 60 | N#Cc1cnn2c(-c3cc(NC4CCOCC4)c(-c4nnc(N5CCN(CC6CCN(c7cc(C8CCC(=O)NC8=O)ccn7)CC6)CC5)s4)cn3)ccc2c1 (racemic) [Example 12, rac-7-[5-(5-{4-[(1-{4-[(3R)-2,6-dioxopiperidin-3-yl]pyridin-2-yl}piperidin-4-yl)methyl]piperazin-1-yl}-1,3,4-thiadiazol-2-yl)-4-[(oxan-4-yl)amino]pyridin-2-yl]pyrrolo[1,2-b]pyridazine-3-carbonitrile] |
| 65 | 90 | N#Cc1cnn2c(-c3cc(NC4CCOCC4)c(-c4nnc(N5CCN(CC6CCN(c7ccc(C8CCC(=O)NC8=O)cc7F)CC6)CC5)s4)cn3)ccc2c1 (racemic) [Example 4, rac-7-[5-(5-{4-[(1-{4-[(3R)-2,6-dioxopiperidin-3-yl]-2-fluorophenyl}piperidin-4-yl)methyl]piperazin-1-yl}-1,3,4-thiadiazol-2-yl)-4-[(oxan-4-yl)amino]pyridin-2-yl]pyrrolo[1,2-b]pyridazine-3-carbonitrile] |

| Structure (SMILES) | DC50 [nM] | Dmax [%] |
| --- | --- | --- |
| N#Cc1cnn2c(-c3cc(NC4(C#N)CC4)c(-c4nnc(N5CC6CCC(C5)N6CC5CCN(c6ccc([C@@H]7CCC(=O)NC7=O)cn6)CC5)s4)cn3)ccc2c1 (single isomer, unassigned) [Example 134] | 20 | 111 |
| CC(C)Nc1cc(-c2ccc3cc(C#N)cnn23)ncc1-c1nnc(N2CC3CCC(C2)N3CC2CCN(c3ccc([C@H]4CCC(=O)NC4=O)cn3)CC2)s1 (racemic) [Example 2, rac-7-[5-(5-{8-[(1-{5-[(3R)-2,6-dioxopiperidin-3-yl]pyridin-2-yl}piperidin-4-yl)methyl]-3,8-diazabicyclo[3.2.1]octan-3-yl}-1,3,4-thiadiazol-2-yl)-4-[(propan-2-yl)amino]pyridin-2-yl]pyrrolo[1,2-b]pyridazine-3-carbonitrile] | 53 | 67 |
| N#Cc1cnn2c(-c3cc(NC4CCOCC4)c(-c4nnc(N5CC6CCC(C5)N6CC5CCN(c6ccc([C@@H]7CCC(=O)NC7=O)cn6)CC5)s4)cn3)ccc2c1 (single isomer, unassigned) [Example 111] | 32 | 110 |
| C[C@@H](C#N)Nc1cc(-c2ccc3cc(C#N)cnn23)ncc1-c1nnc(N2CC3CCC(C2)N3CC2CCN(c3ccc([C@H]4CCC(=O)NC4=O)cn3)CC2)s1 (single isomer, unassigned) [Example 143] | 72 | 99 |

Source: patent publication US12570662B2, “Substituted pyrrolo[1,2-b]pyridazines as bifunctional degraders of interleukin-1 receptor-associated kinases” (Nurix Therapeutics, Inc., priority 2021, dated 2026)
